Reference: ChEMBL document CHEMBL3137667, “[Drug-induced liver injury; fourteenth updated edition of the bibliographic database of liver injuries and related drugs]” (Gastroenterol Clin Biol, 2004)

Legend:
[1] = human
[2] = Proposed mechanism(s) of liver damage. [column 'MEC' in source]; settings: human
[3] = Comments (NB not yet translated). [column 'COMMENTAIRES' in source]; settings: human
[4] = human; remark: listed apart in the source
[5] = Highest frequency of moderate liver toxicity observed during clinical trials, expressed as a percentage. [column '% BIOL' in source]; settings: human
[6] = human; remark: listed apart in the source
[7] = human, serum
[8] = human; remark: listed apart in the source
[9] = Presence of at least one case with successful reintroduction. [column 'REINT' in source]; settings: human
[10] = human, serum, 4383 h
[11] = human; remark: listed apart in the source
[12] = Times to onset, minimal and maximal, observed in the indexed observations. [column 'DELAI' in source]; settings: human
[13] = human; remark: listed apart in the source
[14] = human; remark: listed apart in the source
[15] = human; remark: listed apart in the source
[16] = Highest frequency of acute liver toxicity observed during clinical trials, expressed as a percentage. [column '% AIGUE' in source]; settings: human
[17] = human, serum; remark: listed apart in the source
[18] = human; remark: listed apart in the source
[19] = human; remark: listed apart in the source
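Wherever Hepatotoxicity (association with vascular disease) is given: count of indexed literature references reporting vascular liver injury in humans, e.g. peliosis hepatitis, hepatic veno-occlusive disease or Budd-Chiari syndrome.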
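Wherever Hepatotoxicity (benign tumour) is given: value is a count of indexed literature references citing a benign tumour confirmed by histopathology.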
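Wherever Hepatotoxicity (choleostasis) is given: human cholestatic liver injury, shown by histopathology or by peak ALT or AST elevation over alkaline phosphatase ratio below 2, value counts indexed literature reports.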
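Wherever Hepatotoxicity (chronic liver disease) is given: chronic liver injury confirmed by histopathology or persistently raised serum aminotransferase activity beyond 6 months, value given as the count of indexed literature references.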
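Wherever Hepatotoxicity (cirrhosis) is given: value is a count of indexed literature references reporting cirrhosis confirmed by histopathology.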
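Wherever Hepatotoxicity (cytolytic) is given: human cytolytic liver injury, shown by histopathology or by a ratio above 5 of peak ALT or AST elevation to alkaline phosphatase elevation, value counts indexed references.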
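Wherever Hepatotoxicity (granulomatous hepatitis) is given: value is a count of indexed literature references reporting granulomatous liver disease confirmed by histopathology.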
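Wherever Hepatotoxicity (malignant tumour) is given: malignant tumour confirmed by histopathology, value gives the count of indexed literature references reporting it.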
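Wherever Hepatotoxicity (severe hepatitis) is given: human clinical data: severe hepatitis, meaning potentially life-threatening liver failure or clinically observed cases, the value counts how many indexed literature references report it.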
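Wherever Hepatotoxicity (steatosis) is given: steatosis confirmed by histopathology, value is the count of indexed references.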

Row | Compound | Hepatotoxicity (steatosis) [1] | Hepatotoxicity (mechanism) [2] | Hepatotoxicity (comment) [3] | Hepatotoxicity (cytolytic) [4] | Hepatotoxicity (moderate) [5] | Hepatotoxicity (malignant tumour) [6] | Hepatotoxicity (acute) [7] | Hepatotoxicity (severe hepatitis) [8] | Hepatotoxicity (successful reintroduction) [9] | Hepatotoxicity (chronic liver disease) [10] | Hepatotoxicity (granulomatous hepatitis) [11] | Hepatotoxicity (time to onset) [12] | Hepatotoxicity (benign tumour) [13] | Hepatotoxicity (choleostasis) [14] | Hepatotoxicity (association with vascular disease) [15] | Hepatotoxicity (acute) [16] | Hepatotoxicity (moderate) [17] | Hepatotoxicity (cirrhosis) [18] | Hepatotoxicity (animal toxicity known) [19] | further results
1 | CC[C@H]1OC(=O)[C@H](C)[C@@H](O[C@H]2C[C@@](C)(OC)[C@@H](O)[C@H](C)O2)[C@H](C)[C@@H](O[C@@H]2O[C@H](C)C[C@H](N(C)C)[C@H]2O)[C@](C)(OC)C[C@@H](C)C(=O)[C@H](C)[C@@H](O)[C@]1(C)O [CLARITHROMYCIN] | 0 | Allergic, Dose-dependant | AC_ANTI-N | 9 | 50.6% | 0 | 13 | 4 | yes | 0 | 0 | 1 day - 10 weeks | 0 | 6 | 0 | 5.6% | 47 | 0 | yes | 
2 | COC(=O)Nc1nc2ccc(C(=O)c3ccccc3)cc2[nH]1 [MEBENDAZOLE] | 0 | Allergic, Dose-dependant | AC_ANTI-ML I/CIMETIDINE | 3 | 30% | 0 | 3 | 0 | yes | 0 | 1 | 2 days - 2 months | 0 | 0 | 0 | 0% | 13 | 0 | yes | 
3 | FC(F)OC(Cl)C(F)(F)F (centres undefined) [ISOFLURANE] | 2 | Allergic, Reactive metabolite | AC_ANTI-MFR/-TFA I/ALCOOL | 20 | 13.3% | 0 | 25 | 11 | yes | 0 | 0 | < 1 day - 3 weeks | 0 | 1 | 0 | 0% | 5 | 0 | yes | 
4 | O=P1(N(CCCl)CCCl)NCCCO1 (centres undefined) [CYCLOPHOSPHAMIDE ANHYDROUS] | 0 |  | CHC HNR MVO REACTIVATION_HVB |  |  | 4 | 18 |  | yes | 0 |  | 2 days - 21 years | 0 |  | 44 |  | 16 | 0 | yes | Hepatotoxicity (mechanism) ([2]; Liver): Dose-dependant; Hepatotoxicity (cytolytic) ([4]; Liver): 15; Hepatotoxicity (moderate) ([5]; Liver): 85%; Hepatotoxicity (severe hepatitis) ([8]; Liver): 11; Hepatotoxicity (granulomatous hepatitis) ([11]; Liver): 0; Hepatotoxicity (choleostasis) ([14]; Liver): 2; Hepatotoxicity (acute) ([16]; Liver): 2.6%
5 | CCC(=O)O[C@](Cc1ccccc1)(c1ccccc1)[C@H](C)CN(C)C [PROPOXYPHENE] | 0 | Allergic, Dose-dependant | CHOLANGITE | 7 | 14.3% | 0 | 21 | 0 | yes | 1 | 0 | 1 day - 1.5 years | 0 | 20 | 0 | 0% | 6 | 0 | yes | 
6 | NNC(=O)c1ccncc1 [ISONIAZID] | 1 | Dose-dependant, Reactive metabolite | I/CARBAMAZE/ENFLURANE/PARACETAMOL/RIFAMPICINE/RIFAMYCINE/VALPROATE | 61 | 51.2% | 0 | 91 | 40 | yes | 3 | 1 | 1 day - 1 year | 0 | 11 | 0 | 26.7% | 60 | 4 | yes | 
7 | CN/C(=N/CCSCc1nc[nH]c1C)NC#N [CIMETIDINE] | 0 |  | RC/FAMOTIDINE I/MEBENDAZOLE |  |  | 0 | 28 |  | yes | 1 |  | 2 days - 2 years | 0 |  | 0 |  | 29 | 0 | yes | Hepatotoxicity (mechanism) ([2]; Liver): Allergic, Dose-dependant, Toxic Metabolite; Hepatotoxicity (cytolytic) ([4]; Liver): 20; Hepatotoxicity (moderate) ([5]; Liver): 38%; Hepatotoxicity (severe hepatitis) ([8]; Liver): 3; Hepatotoxicity (granulomatous hepatitis) ([11]; Liver): 0; Hepatotoxicity (choleostasis) ([14]; Liver): 10; Hepatotoxicity (acute) ([16]; Liver): 0%
8 | ALDESLEUKIN | 1 | Allergic, Dose-dependant | CHOLECYSTITE PERICHOLANGITE | 6 | 100% | 0 | 14 | 1 | yes | 0 | 0 | 1 day - 2 years | 0 | 6 | 0 | 35.7% | 58 | 1 | yes | 
9 | CC(C)Nc1ncccn1 [ISAXONINE] | 1 | Allergic, Reactive metabolite | AC_ANTI-MFR1 | 13 | 0% | 0 | 13 | 4 | yes | 0 | 1 | 1 month - 6 months | 0 | 3 | 0 | 0% | 0 | 0 | yes | 
10 | CN(C)c1ccc(O)c2c1C[C@H]1C[C@H]3[C@H](N(C)C)C(O)=C(C(N)=O)C(=O)[C@@]3(O)C(O)=C1C2=O [MINOCYCLINE] | 2 | Allergic, Dose-dependant, Toxic Metabolite | AC_ANTI-N/-ADN/-pNCA REACTIVATION_VH-6 | 36 | 41.7% | 0 | 48 | 8 | yes | 11 | 1 | 4 days - 12 years | 0 | 2 | 0 | 0% | 17 | 0 | yes | 
11 | COC(F)(F)C(Cl)Cl [METHOXYFLURANE] | 3 | Allergic, Reactive metabolite | RC/HALOTHANE | 27 | 0% | 0 | 32 | 19 | yes | 0 | 0 | 1 day - 20 days | 0 | 0 | 0 | 0% | 8 | 0 | yes | 
